Source: ChEMBL document CHEMBL3885881, “DrugMatrix”

Species on record: Rattus norvegicus
Test: DrugMatrix - Regimen: Daily Repeat
Assay type: toxicity, organism-based, Sprague-Dawley
Parameters: regimen Daily Repeat, gender Male, age 6-8 weeks
Details: in vivo, po, 20 mg/kg, route oral GAVAGE, dose level High, vehicle 100 % WATER; for BASOPHIL / EOSINOPHIL / ERYTHROCYTE COUNT / HEMATOCRIT / HEMOGLOBIN / LEUKOCYTE COUNT / LYMPHOCYTE / MEAN CORPUSCULAR HEMOGLOBIN / MEAN CORPUSCULAR HEMOGLOBIN CONCENTRATION / MEAN CORPUSCULAR VOLUME / MONOCYTE / NEUTROPHIL / PLATELET COUNT: tissue Blood; for ALANINE AMINOTRANSFERASE / ALBUMIN / ALKALINE PHOSPHATASE / ASPARTATE AMINOTRANSFERASE / BLOOD UREA NITROGEN / CARBON DIOXIDE / CHLORIDE / CHOLESTEROL / CREATINE PHOSPHOKINASE / CREATININE / GLUCOSE / LACTATE DEHYDROGENASE / LIPASE / PHOSPHORUS / POTASSIUM / SODIUM / TOTAL BILIRUBIN / TOTAL PROTEIN / URIC ACID: tissue Plasma

SMILES: C=CC=O [ACROLEIN]
- BASOPHIL (72 h, time 3 day): 0.17%
- EOSINOPHIL (72 h, time 3 day): 1.23%
- ERYTHROCYTE COUNT (72 h, time 3 day): 6.79 x10E6/uL
- HEMATOCRIT (72 h, time 3 day): 44.43%
- HEMOGLOBIN (72 h, time 3 day): 14.33 G/DL
- LEUKOCYTE COUNT (72 h, time 3 day): 13.23 x10E3/uL
- LYMPHOCYTE (72 h, time 3 day): 50.33%
- MEAN CORPUSCULAR HEMOGLOBIN (72 h, time 3 day): 21.17 pg
- MEAN CORPUSCULAR HEMOGLOBIN CONCENTRATION (72 h, time 3 day): 32.27 G/DL
- MEAN CORPUSCULAR VOLUME (72 h, time 3 day): 65.47 fL
- MONOCYTE (72 h, time 3 day): 5.93%
- NEUTROPHIL (72 h, time 3 day): 40.03%
- PLATELET COUNT (72 h, time 3 day): 1336 x10E3/uL
- ALANINE AMINOTRANSFERASE (72 h, time 3 day): 33.67 u/L
- ALBUMIN (72 h, time 3 day): 3.47 G/DL
- ALKALINE PHOSPHATASE (72 h, time 3 day): 159 u/L
- ASPARTATE AMINOTRANSFERASE (72 h, time 3 day): 72.67 u/L
- BLOOD UREA NITROGEN (72 h, time 3 day): 13 mg/dL
- CARBON DIOXIDE (72 h, time 3 day): 27.67 mmol/L
- CHLORIDE (72 h, time 3 day): 105.67 MEQ/L
- CHOLESTEROL (72 h, time 3 day): 122.33 mg/dL
- CREATINE PHOSPHOKINASE (72 h, time 3 day): 216.67 u/L
- CREATININE (72 h, time 3 day): 0.43 mg/dL
- GLUCOSE (72 h, time 3 day): 151.67 mg/dL
- LACTATE DEHYDROGENASE (72 h, time 3 day): 35 u/L
- LIPASE (72 h, time 3 day): 24.33 u/L
- PHOSPHORUS (72 h, time 3 day): 11.6 mg/dL
- POTASSIUM (72 h, time 3 day): 5.87 MEQ/L
- SODIUM (72 h, time 3 day): 148 MEQ/L
- TOTAL BILIRUBIN (72 h, time 3 day): 0.27 mg/dL
- TOTAL PROTEIN (72 h, time 3 day): 5.43 G/DL
- URIC ACID (72 h, time 3 day): 1.27 mg/dL
- BASOPHIL (120 h, time 5 day): 0.23%
- EOSINOPHIL (120 h, time 5 day): 0.37%
- ERYTHROCYTE COUNT (120 h, time 5 day): 7 x10E6/uL
- HEMATOCRIT (120 h, time 5 day): 45.17%
- HEMOGLOBIN (120 h, time 5 day): 14.17 G/DL
- LEUKOCYTE COUNT (120 h, time 5 day): 18.4 x10E3/uL
- LYMPHOCYTE (120 h, time 5 day): 56.63%
- MEAN CORPUSCULAR HEMOGLOBIN (120 h, time 5 day): 20.2 pg
- MEAN CORPUSCULAR HEMOGLOBIN CONCENTRATION (120 h, time 5 day): 31.37 G/DL
- MEAN CORPUSCULAR VOLUME (120 h, time 5 day): 64.53 fL
- MONOCYTE (120 h, time 5 day): 5.23%
- NEUTROPHIL (120 h, time 5 day): 35.47%
- PLATELET COUNT (120 h, time 5 day): 1464.67 x10E3/uL
- ALANINE AMINOTRANSFERASE (120 h, time 5 day): 36.33 u/L
- ALBUMIN (120 h, time 5 day): 3.33 G/DL
- ALKALINE PHOSPHATASE (120 h, time 5 day): 202.33 u/L
- ASPARTATE AMINOTRANSFERASE (120 h, time 5 day): 71 u/L
- BLOOD UREA NITROGEN (120 h, time 5 day): 15 mg/dL
- CARBON DIOXIDE (120 h, time 5 day): 23.67 mmol/L
- CHLORIDE (120 h, time 5 day): 110.33 MEQ/L
- CHOLESTEROL (120 h, time 5 day): 106 mg/dL
- CREATINE PHOSPHOKINASE (120 h, time 5 day): 207.67 u/L
- CREATININE (120 h, time 5 day): 0.27 mg/dL
- GLUCOSE (120 h, time 5 day): 140 mg/dL
- LACTATE DEHYDROGENASE (120 h, time 5 day): 58 u/L
- LIPASE (120 h, time 5 day): 40.33 u/L
- PHOSPHORUS (120 h, time 5 day): 11.4 mg/dL
- POTASSIUM (120 h, time 5 day): 5.6 MEQ/L
- SODIUM (120 h, time 5 day): 152.33 MEQ/L
- TOTAL BILIRUBIN (120 h, time 5 day): 0.23 mg/dL
- TOTAL PROTEIN (120 h, time 5 day): 5.37 G/DL
- URIC ACID (120 h, time 5 day): 1.73 mg/dL
- BASOPHIL ([…], time 14 day): 0.9%
- EOSINOPHIL ([…], time 14 day): 0.5%
- ERYTHROCYTE COUNT ([…], time 14 day): 7.34 x10E6/uL
- HEMATOCRIT ([…], time 14 day): 43.1%
- HEMOGLOBIN ([…], time 14 day): 14.5 G/DL
- LEUKOCYTE COUNT ([…], time 14 day): 33.86 x10E3/uL
- LYMPHOCYTE ([…], time 14 day): 32.7%
- MEAN CORPUSCULAR HEMOGLOBIN ([…], time 14 day): 19.8 pg
- MEAN CORPUSCULAR HEMOGLOBIN CONCENTRATION ([…], time 14 day): 33.6 G/DL
- MEAN CORPUSCULAR VOLUME ([…], time 14 day): 58.8 fL
- MONOCYTE ([…], time 14 day): 5.2%
- NEUTROPHIL ([…], time 14 day): 59.1%
- PLATELET COUNT ([…], time 14 day): 2095 x10E3/uL
- ALANINE AMINOTRANSFERASE ([…], time 14 day): 40 u/L
- ALBUMIN ([…], time 14 day): 3.6 G/DL
- ALKALINE PHOSPHATASE ([…], time 14 day): 220 u/L
- ASPARTATE AMINOTRANSFERASE ([…], time 14 day): 68 u/L
- BLOOD UREA NITROGEN ([…], time 14 day): 13 mg/dL
- CARBON DIOXIDE ([…], time 14 day): 31 mmol/L
- CHLORIDE ([…], time 14 day): 101 MEQ/L
- CHOLESTEROL ([…], time 14 day): 116 mg/dL
- CREATINE PHOSPHOKINASE ([…], time 14 day): 267 u/L
- CREATININE ([…], time 14 day): 0.4 mg/dL
- GLUCOSE ([…], time 14 day): 145 mg/dL
- LACTATE DEHYDROGENASE ([…], time 14 day): 109 u/L
- LIPASE ([…], time 14 day): 33 u/L
- PHOSPHORUS ([…], time 14 day): 9.2 mg/dL
- POTASSIUM ([…], time 14 day): 6.6 MEQ/L
- SODIUM ([…], time 14 day): 147 MEQ/L
- TOTAL BILIRUBIN ([…], time 14 day): 0.5 mg/dL
- TOTAL PROTEIN ([…], time 14 day): 5.7 G/DL
- URIC ACID ([…], time 14 day): 2.5 mg/dL
